In article PMC11589570, “Critical assessment of LC3/GABARAP ligands used for degrader development and ligandability of LC3/GABARAP binding pockets” (Nature Communications, 2024):
“And” between values parts separate entries of the source, which are not always exact repeats. Equal entries are not always repeated. Where two headings read alike, the source gives them in different places.

Key:
U2OS cells = assay: Cell growth assay (IncuCyte confluence over 72 h); type: cell-based; set-up: key to U2OS cell growth: % of well area covered by cells (confluence)
Procedure: Cell growth assay: Cell confluence (phase) from RPE1 (hTERT RPE-1, ATCC CLR_4000) or U2OS (ATCC, HTB-96) cell lines were monitored over time with the IncuCyte S3 (Sartiorius, Germany) in 384-well plates in 50 ul DMEM media, supplemented with 10% Fetal Bovine Serum (FBS) 1% penicillin/Streptomycin and incubated 24 h before treatment. Experiment was performed as described in Cano-Franco et al.. […] Cell confluence is represented as % of area covered by cells. Each data point represents the average ratio or confluence obtained from three individual wells of the plate.

GABARAPL2 = GABARAPL2 (Homo sapiens, UniProt P60520); conditions: GABARAPL2:ligand molar ratio 1:2
Sequence of GABARAPL2 (P60520 whole entry): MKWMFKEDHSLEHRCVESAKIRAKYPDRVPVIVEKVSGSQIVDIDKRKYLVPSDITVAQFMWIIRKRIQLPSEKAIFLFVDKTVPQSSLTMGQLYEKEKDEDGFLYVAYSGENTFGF

CSP (GABARAPL2; residue A19): 0.010 ppm
CSP (GABARAPL2; residue A23): 0.008 ppm
CSP (GABARAPL2; residue A58): 0.00237 ppm
CSP (GABARAPL2; residue A108): 0.00221 ppm
CSP (GABARAPL2; residue C15): 0.005 ppm
CSP (GABARAPL2; residue D45): 0.004 ppm
CSP (GABARAPL2; residue D54): 0.006 ppm
CSP (GABARAPL2; residue D81): 0.00283 ppm
CSP (GABARAPL2; residue D100): 0.00367 ppm
CSP (GABARAPL2; residue D102): 0.009 ppm
CSP (GABARAPL2; residue E12): 0.00212 ppm
CSP (GABARAPL2; residue E17): 0.006 ppm
CSP (GABARAPL2; residue E34): 0.010 ppm
CSP (GABARAPL2; residue E73): 0.00212 ppm
CSP (GABARAPL2; residue E96): 0.004 ppm
CSP (GABARAPL2; residue E112): 0.002 ppm
CSP (GABARAPL2; residue F5, estimated): 0.005 ppm
CSP (GABARAPL2; residue F60): 0.005 ppm
CSP (GABARAPL2; residue F77): 0.00281 ppm
CSP (GABARAPL2; residue F104): 0.016 ppm
CSP (GABARAPL2; residue F115): 0.009 ppm
CSP (GABARAPL2; residue G38): 0.012 ppm
CSP (GABARAPL2; residue G103): 0.005 ppm
CSP (GABARAPL2; residue G111): 0.008 ppm
CSP (GABARAPL2; residue H9): 0.016 ppm
CSP (GABARAPL2; residue I21): 0.005 ppm
CSP (GABARAPL2; residue I32): 0.005 ppm
CSP (GABARAPL2; residue I41): 0.007 ppm
CSP (GABARAPL2; residue I44): 0.002 ppm
CSP (GABARAPL2; residue I55): 0.00171 ppm
CSP (GABARAPL2; residue I63): 0.003 ppm
CSP (GABARAPL2; residue I64): 0.006 ppm
CSP (GABARAPL2; residue K2): 0.005 ppm
CSP (GABARAPL2; residue K20): 0.009 ppm
CSP (GABARAPL2; residue K24): 0.005 ppm
CSP (GABARAPL2; residue K35): 0.007 ppm
CSP (GABARAPL2; residue K46, estimated): 0.005 ppm
CSP (GABARAPL2; residue K48): 0.007 ppm
CSP (GABARAPL2; residue K66): 0.00316 ppm
CSP (GABARAPL2; residue K74): 0.00148 ppm
CSP (GABARAPL2; residue K82, estimated): 0.005 ppm
CSP (GABARAPL2; residue K99): 0.00444 ppm
CSP (GABARAPL2; residue L11): 0.00212 ppm
CSP (GABARAPL2; residue L50): 0.031 ppm
CSP (GABARAPL2; residue L70): 0.00283 ppm
CSP (GABARAPL2; residue L78): 0.0017 ppm
CSP (GABARAPL2; residue L94): 0.007 ppm
CSP (GABARAPL2; residue L105): 0.00636 ppm
CSP (GABARAPL2; residue M1): 0.014 ppm
CSP (GABARAPL2; residue M4, estimated): 0.005 ppm
CSP (GABARAPL2; residue M61): 0.00474 ppm
CSP (GABARAPL2; residue M91): 0.005 ppm
CSP (GABARAPL2; residue P26, estimated): 0.005 ppm
CSP (GABARAPL2; residue P30, estimated): 0.010 ppm
CSP (GABARAPL2; residue P52, estimated): 0.005 ppm
CSP (GABARAPL2; residue P71, estimated): 0.005 ppm
CSP (GABARAPL2; residue P85, estimated): 0.005 ppm
CSP (GABARAPL2; residue Q40): 0.0017 ppm
CSP (GABARAPL2; residue Q59): 0.002 ppm
CSP (GABARAPL2; residue R14): 0.0095 ppm
CSP (GABARAPL2; residue R28): 0.00851 ppm
CSP (GABARAPL2; residue R47, estimated): 0.005 ppm
CSP (GABARAPL2; residue R65): 0.0019 ppm
CSP (GABARAPL2; residue R67): 0.004 ppm
CSP (GABARAPL2; residue S10): 0.013 ppm
CSP (GABARAPL2; residue S18): 0.002 ppm
CSP (GABARAPL2; residue S37): 0.0065 ppm
CSP (GABARAPL2; residue S39): 0.00356 ppm
CSP (GABARAPL2; residue S53): 0.005 ppm
CSP (GABARAPL2; residue S88): 0.00122 ppm
CSP (GABARAPL2; residue S110): 0.00122 ppm
CSP (GABARAPL2; residue T83): 0.00251 ppm
CSP (GABARAPL2; residue T114): 0.00122 ppm
CSP (GABARAPL2; residue V29): 0.0057 ppm
CSP (GABARAPL2; residue V31): 0.025 ppm
CSP (GABARAPL2; residue V36): 0.00316 ppm
CSP (GABARAPL2; residue V42): 0.006 ppm
CSP (GABARAPL2; residue V51): 0.009 ppm
CSP (GABARAPL2; residue V80): 0.008 ppm
CSP (GABARAPL2; residue V84): 0.00228 ppm
CSP (GABARAPL2; residue V107): 0.006 ppm
CSP (GABARAPL2; residue W3): 0.006 ppm
CSP (GABARAPL2; residue Y49): 0.033 ppm
CSP (GABARAPL2; residue Y95): 0.0022 ppm
CSP (GABARAPL2; residue Y106): 0.007 ppm
CSP (GABARAPL2; residue Y109): 0.007 ppm
SMILES: O=c1cc(-c2ccccc2)c2c(O)cc(O)cc2o1 [compound 2]
U2OS cell growth (U2OS cells; 100 nM, time 0 h, listed as AN2): 19.1869 and 23.0588 and 16.4621
U2OS cell growth (U2OS cells; 100 nM, time 2 h, listed as AN2): 26.3735 and 32.6169 and 19.3997
U2OS cell growth (U2OS cells; 100 nM, time 4 h, listed as AN2): 24.7952 and 30.3994 and 22.748
U2OS cell growth (U2OS cells; 100 nM, time 6 h, listed as AN2): 35.0609 and 34.7921 and 28.0047
U2OS cell growth (U2OS cells; 500 nM, time 0 h, listed as AN2): 31.1146 and 31.1409 and 25.529
U2OS cell growth (U2OS cells; 500 nM, time 2 h, listed as AN2): 37.2793 and 37.1141 and 29.374
U2OS cell growth (U2OS cells; 500 nM, time 4 h, listed as AN2): 35.0603 and 34.3575 and 27.3746
U2OS cell growth (U2OS cells; 500 nM, time 6 h, listed as AN2): 41.7549 and 43.2861 and 37.4758
U2OS cell growth (U2OS cells; 500 nM, time 10 h): 32.7403
U2OS cell growth (U2OS cells; 1 uM, time 0 h, listed as AN2): 36.01 and 37.7334 and 44.0066
U2OS cell growth (U2OS cells; 1 uM, time 2 h, listed as AN2): 41.2565 and 41.9214 and 49.8222
U2OS cell growth (U2OS cells; 1 uM, time 4 h, listed as AN2): 42.1175 and 41.7454 and 46.9501
U2OS cell growth (U2OS cells; 1 uM, time 6 h, listed as AN2): 43.4595 and 43.9324 and 52.0735
U2OS cell growth (U2OS cells; 1 uM, time 8 h, listed as AN2): 40.5517 and 44.5898 and 47.4794
U2OS cell growth (U2OS cells; 1 uM, time 10 h, listed as AN2): 50.4894 and 50.7087 and 57.5735
U2OS cell growth (U2OS cells; 1 uM, time 12 h, listed as AN2): 52.169
U2OS cell growth (U2OS cells; 3 uM, time 0 h, listed as AN2): 52.9397 and 44.5639 and 41.1773
U2OS cell growth (U2OS cells; 3 uM, time 2 h, listed as AN2): 56.1844 and 48.7409 and 42.4981
U2OS cell growth (U2OS cells; 3 uM, time 4 h, listed as AN2): 62.7365 and 55.2773 and 40.1715
U2OS cell growth (U2OS cells; 3 uM, time 6 h, listed as AN2): 59.0724 and 50.9181 and 40.9833
U2OS cell growth (U2OS cells; 3 uM, time 8 h, listed as AN2): 54.8708 and 50.2365 and 43.1088
U2OS cell growth (U2OS cells; 3 uM, time 10 h, listed as AN2): 58.4454 and 57.5785 and 49.1427
U2OS cell growth (U2OS cells; 3 uM, time 12 h, listed as AN2): 58.133 and 56.9126
U2OS cell growth (U2OS cells; 5 uM, time 0 h, listed as AN2): 43.5311 and 39.437 and 42.1256
U2OS cell growth (U2OS cells; 5 uM, time 2 h, listed as AN2): 49.0024 and 44.0014 and 45.1119
U2OS cell growth (U2OS cells; 5 uM, time 4 h, listed as AN2): 52.676 and 42.1033 and 45.9331
U2OS cell growth (U2OS cells; 5 uM, time 6 h, listed as AN2): 55.9501 and 52.2867 and 48.2418
U2OS cell growth (U2OS cells; 5 uM, time 8 h, listed as AN2): 48.351 and 54.4267 and 50.4706
U2OS cell growth (U2OS cells; 5 uM, time 10 h, listed as AN2): 60.2478 and 59.3897 and 54.3527
U2OS cell growth (U2OS cells; 10 uM, time 0 h, listed as AN2): 38.4245 and 29.6214 and 35.113
U2OS cell growth (U2OS cells; 10 uM, time 2 h, listed as AN2): 42.0042 and 29.7485 and 38.264
U2OS cell growth (U2OS cells; 10 uM, time 4 h, listed as AN2): 45.9814 and 34.6443 and 44.264
U2OS cell growth (U2OS cells; 10 uM, time 6 h, listed as AN2): 49.3993 and 33.9992 and 45.6677
U2OS cell growth (U2OS cells; 10 uM, time 8 h, listed as AN2): 46.5429 and 32.9506 and 41.2472
U2OS cell growth (U2OS cells; 10 uM, time 10 h, listed as AN2): 49.5589 and 37.0749 and 46.636
